Test results taken from patent US9233166B2, “Supramolecular functionalization of graphitic nanoparticles for drug delivery” (The Board of Trustees of the Leland Stanford Junior …, priority 2007, dated 2016).
pIC50: −log10 of the molar value. Where “and” joins values, the source holds several entries; their conditions need not be identical. Equal entries are not always repeated. Where two headings read alike, the source gives them in different places.

Experiments:
[1] = test system: OVCAR-3 ovarian cancer cell line; experiment: MTS cell toxicity assay, OVCAR-3; assay type: cell-based; conditions: Homo sapiens, 72 h drug incubation
Protocol: (§1) HCT-116 colon cancer cell line, OVCAR-3 ovarian cancer cell line, U87MG glioma cell line and MDA-MB-435 breast cancer cell line were all obtained from American Type Culture Collect (ATCC) and cultured in the recommended conditions. […] After incubation for 72 hours, relative cell viability was measured by standard MTS assay using a CellTiter 96 kit (promega). For NGO-PEG toxicity test, cell medium containing NGO-PEG was changed to fresh medium at 72 h before cell viability test to avoid the dark color of NGO-PEG at high concentrations, which interferes the absorbance reading in MTS assay.

U87MG glioma cell line = experiment: MTS cell toxicity assay, U87MG; assay type: cell-based; conditions: Homo sapiens, U-87 MG, 72 h drug incubation
Protocol: as §1

[2] = test system: MDA-MB-435 breast cancer cell line; experiment: MTS cell toxicity assay, MDA-MB-435; assay type: cell-based; conditions: Homo sapiens, MDA-MD-435 (breast), 72 h drug incubation
Protocol: as §1

[3] = test system: HCT-116 colon cancer cell line; experiment: MTS cell toxicity assay, HCT-116; assay type: cell-based; conditions: Homo sapiens
Protocol: as §1

[4] = Water solubility of NGO-PEG-SN38; assay type: physicochemical; conditions: in terms of SN38
Source text: The existence of aromatic conjugated domains on GO has been shown by NMR previously (Lerf, A.; He, H. Y.; Forster, M.; Klinowski, J., J. Phys. Chem. B, 1998, 102, 4477-4482).

[5] = mouse, in vivo, iv
Protocol: Blood circulation was measured by drawing ˜15 μl blood from the tail vein of Raji tumor bearing SCID mice post injection of free DOX or SWNT-DOX. The blood samples were dissolved in a lysis buffer 1 (1% SDS, 1% Triton X-100, 40 mM Tris Acetate, 10 mM EDTA, 10 mM DTT) with brief sonication. Concentration of SWNTs in the blood was measured by a Raman method. […] In brief, DOX was extracted by incubating blood samples in 1 ml of 0.75 M HCl in isopropanol (IPA) at −20° C. overnight. After centrifuge at 24,000 g for 15 minutes, the supernatant was taken for fluorescence measurement using a fluorolog-3 fluorometer. A standard calibration curve with obtained by measuring fluorescence of extraction solutions with known DOX concentrations. DOX loaded on SWNTs can be completely pulled from nanotubes by the extraction solution with ˜100% recover of fluorescence (DOX fluorescence is quenched once loaded on nanotubes).
Blood circulation data were plotted as the blood DOX or SWNT levels (unit: % ID/g) against time p.i. […]
We injected free DOX or SWNT-DOX to Raji tumor bearing SCID mice by intravenous (i.v.) injection via tail veins. Blood was drawn at different time points post injection (p.i.) with DOX concentrations measured by fluorescence spectra.

[6] = test system: Raji B-cell lymphoma tumors; experiment: In vivo treatment of Raji tumor bearing SCID mice
Protocol: Each SCID mouse was subcutaneously injected with 10 million Raji cells on its back. The treatment was initiated when the tumors reached sizes of ˜400 mm^3 (2-3 weeks after tumor inoculation). The tumor bearing mice were i.v. injected with different formulations of DOX including free DOX, SWNT-DOX and Doxil at 5 mg/kg of normalized DOX dose (or 10 mg/kg for SWNT-DOX) as well as related controls weekly. The tumor sizes were measured by a caliper three times a week and calculated as the volume=(tumor length)×(tumor width)^2/2. Relative tumor volumes were calculated as V/V0 (V0 was the tumor volume when the treatment was initiated). Mice were weighed with the relative body weights normalized to their initial weights.
Raji tumor bearing SCID mice were treated with different formulations of DOX at the weekly by i.v. injection. Plain SWNT and separated injections of plain SWNT plus free DOX were used as the controls. The tumor sizes were normalized to their initial size when the treatment was started (FIG. 26A-D).

[7] = Absorbance of free doxorubicin on heating; assay type: physicochemical; conditions: after 24 hours
Protocol: The diameter distributions of two types of SWNTs were obtained by AFM topographic height measurements of ˜100 PL-PEG functionalized nanotubes in each material, after depositing them on Si substrates from solutions (FIG. 12). Both Laser PL-SWNT-DOX and Hipco PL-SWNT-DOX (DOX loaded at pH=9) were incubated in PBS and kept at various temperatures (20° C., 40° C., 60° C., 80° C.). Released doxorubicin was removed at different time points and the retained doxorubicin was measured by UV-VIS-NIR to get temperature dependent releasing curves (FIGS. 13A and 13B). […] This was corrected in obtaining our release curves. The half-lives (t1/2) of doxorubicin on PEGylated SWNTs at various temperatures were obtained by fitting the releasing curves to exponential decays. We then used Arrhenius fits of 1/t1/2(T)=A×exp(−EB/kBT) where A is a constant for extracting binding energy EB of DOX on the PEGylated Hipco and laser-ablation nanotubes.

MCF-7 cells = experiment: MTS cell viability assay, MCF-7 cells (SWNT-DOX formulations); assay type: cell-based; conditions: integrin αvβ3 negative
Protocol: MCF-7 breast cancer cells and U87MG human glioblastoma cancer cells (both from American Type Culture Collection, ATCC) were cultured under standard conditions. Cell viability after various treatments was measured by the MTS assay with CellTiter96 kit (Promega).

4T1 tumors = experiment: In vivo treatment of 4T1 murine breast cancer model; design: species or system Balb/c mice; conditions: PTX 5 mg/kg every 6 days
Protocol: Female Balb/c mice with implanted 4T1 tumors were treated with the compositions shown in the graphs at the same PTX dose (5 mg/kg, every 6 days). […] No obvious side effects were seen. No mouse in the treatment group died, and no average drop in body weigh was seen (FIG. 19). The tumor growth curves were obtained with 5 mice in each group to get the average tumor volumes and standard deviations.
All animal experiments were performed under a protocol approved by Stanford's Administrative Panel on Laboratory Animal Care (APLAC). The 4T1 tumor models were generated by subcutaneous injection of 2×10^6 cells in 50 μl PBS into the right shoulder of female Balb/c mice. The mice were used for treatment when the tumor volume reached 50-100 mm^3 (˜6 days after tumor inoculation). […] The tumor sizes were measured by a caliper every the other day and calculated as the volume=(tumor length)×(tumor width)^2/2. Relative tumor volumes (FIG. 24) were calculated as V/V0 (V0 was the tumor volume when the treatment was initiated).
The mice were observed daily for clinical symptoms and the tumor volume was measured by a digital caliper every other day.

Raji B-cells [8] = experiment: MTS cell viability assay, Raji cells (NGO-PEG-Rituxan/DOX); assay type: cell-based; conditions: 2 uM and 10 uM DOX, vs free DOX, NGO-PEG/DOX and unconjugated mixture
Protocol: Doxorubicin (DOX) loading onto NGO-PEG (and NGO-PEG-Rituxan) was done by simply mixing 0.5 mM of DOX with the NGO-PEG solution (˜0.2 mg/ml) at pH 8 overnight. Unbound excess DOX was removed by filtration through a 100 kDa filter and repeated rinse. The formed NGO-PEG/DOX complexes were re-suspended and stored at 4° C. Concentration of DOX loaded onto NGO-PEG was measured by the absorbance peak at 490 nm (characteristic of DOX, after subtracting the absorbance of NGO-PEG at that wavelength) with a molar extinction coefficient of 1.05×104 M·cm-1. Both Raji and CEM cells were incubated with free DOX, NGO-PEG/DOX, NGO-PEG/DOX+Rituxan (unconjugated) and NGO-PEG-Ri/DOX at DOX concentrations of 2 μM or 10 μM for 2 hours and washed by PBS twice before transferring into fresh cell medium. After another 48 h incubation, Cell viability was measured by the MTS assay with CellTiter96 kit (Promega).
For DOX loaded onto NGO-PEG-rituximab, we incubated the conjugates with Raji cells at 2 uM and 10 uM DOX concentrations.

Raji B-cells [9] = experiment: NIR photoluminescence imaging of cell binding; assay type: cell-based; conditions: 4° C., Raji B-cells vs CEM T-cells
Protocol: We covalently conjugated a B-cell specific antibody, Rituxan® rituximab (anti-CD20) to NGO-PEG (NGO-PEG-rituximab) to selectively recognize and bind to B cell lymphoma cells. We incubated B-cells and T-cells in solutions of NGO-PEG-rituximab conjugates at 4° C. to allow the conjugates to interact with the cell surface but block internalization via endocytosis. The cells were then washed and imaged by detecting NIR photoluminescence from 1100 to 2200 nm using an InGaAs detector under 658 nm excitation (laser spot size ˜1 μm). […] This confirmed selective NGO-PEG-Ab binding to B-cells over T cells. […] Nevertheless, the fluorescence quantum yield (QY) in the NIR-IR region appeared low.
Thiolated Rituxan® was conjugated to the amine groups on NGO-PEG via a sulfo-SMCC linker (Pierce Inc.). […] All NIR fluorescence images were taken using an inverted NIR fluorescence microscope in confocal mode. […] The collected light went through a 900 nm long pass filter (Omega) and a 1100 nm long pass filter (ThorLabs) to block reflected excitation and reduce background fluorescence from the sample holder. […] Background fluorescence from the sample holder (˜160 counts) was subtracted to give relevant statistics about the effectiveness of NGO-PEG binding.

[10] = HCT-116 (colon), 72 h drug incubation, read-out: IC50 values

With `CCc1c2c(nc3ccc(OC(=O)N4CCC(N5CCCCC5)CC4)cc13)-c1cc3c(c(=O)n1C2)COC(=O)[C@]3(O)CC` [CPT-11, irinotecan] the pIC50 [1] was 5.52, the pIC50 (U87MG glioma cell line) was under 4.70 and the pIC50 [2] was 5.22. The pIC50 ([3]; HCT-116, 72 h, read-out: 50% growth inhibition concentration (IC50)) was about 5.00 and the pIC50 [3, 10] was 4.96.

For `CCc1c2c(nc3ccc(O)cc13)-c1cc3c(c(=O)n1C2)COC(=O)[C@]3(O)CC` [SN38, 7-ethyl-10-hydroxycamptothecin], the pIC50 [1] was 9.52, the pIC50 (U87MG glioma cell line) was 7.17 and the pIC50 [2] was 8.52. The pIC50 [3, 10] was 7.82 and the water solubility [4] was “very insoluble in water”.

In the case of `COc1cccc2c1C(=O)c1c(O)c3c(c(O)c1C2=O)C[C@@](O)(C(=O)CO)C[C@@H]3O[C@H]1C[C@H](N)[C@H](O)[C@H](C)O1` [free DOX, doxorubicin], the DOX circulation half-life [5] was 12.6 min, the “total area under curve (AUC0-∞)” value [5] was 5300 ng·h/mL and the mice death ([6]; 5 mg/kg) was 2 out of 10 and 2. For the same compound, the “tumor growth (folds of initial size)” value ([6]; 5 mg/kg DOX weekly i.v., in two weeks) was 2.90±0.19 folds, the body weight loss ([6]; 5 mg/kg, within two weeks) was about 20% and the “mouse death and body weight drop” value ([6]; 10 mg/kg) was “all the tested mice died within 2 weeks”. For the same compound, the “drop of absorbance on heating” value ([7]; 60° C.) was about 30%, the “drop of absorbance on heating” value ([7]; 80° C.) was about 50% and the “toxicity (concentration dependent survival)” value (MCF-7 cells) was “higher toxicity than both PL-SWNT-DOX and PL-SWNT-RGD-DOX”.

For `CC(=O)O[C@H]1C(=O)[C@@]2(C)[C@H]([C@H](OC(=O)c3ccccc3)[C@]3(O)C[C@H](OC(=O)[C@H](O)[C@@H](NC(=O)c4ccccc4)c4ccccc4)C(C)=C1C3(C)C)[C@]1(OC(C)=O)CO[C@@H]1C[C@@H]2O` [free PTX, paclitaxel], the lung metastasis (4T1 tumors) was “obvious lung metastasis was observed”.

In the case of NGO-PEG-Rituxan/DOX, the “DOX delivery and cell killing” value (Raji B-cells [8]) was “Much enhanced DOX delivery and cell killing”.

For NGO-PEG-rituximab, the “cell surface binding (NIR photoluminescence)” value (Raji B-cells [9]) was “selectively on positive Raji B-cells surface and not on negative CEM T-cells”.
